Values after ≈ are worked out from the molar mass of the structure shown.
Key:
[1] = molecular target: T1, Lipoxygenase-5 (LOX-5) enzyme (Homo sapiens, UniProt P09917); assay: In vitro lipoxygenase (LOX-5) inhibitory assay; assay type: biochemical; settings: mean ± SEM, n = 5; read-out: IC50 (LOX-5 inhibition) (converted)
T1 construct: purchased sigma 437996-500U
T1 sequence (P09917 1-674): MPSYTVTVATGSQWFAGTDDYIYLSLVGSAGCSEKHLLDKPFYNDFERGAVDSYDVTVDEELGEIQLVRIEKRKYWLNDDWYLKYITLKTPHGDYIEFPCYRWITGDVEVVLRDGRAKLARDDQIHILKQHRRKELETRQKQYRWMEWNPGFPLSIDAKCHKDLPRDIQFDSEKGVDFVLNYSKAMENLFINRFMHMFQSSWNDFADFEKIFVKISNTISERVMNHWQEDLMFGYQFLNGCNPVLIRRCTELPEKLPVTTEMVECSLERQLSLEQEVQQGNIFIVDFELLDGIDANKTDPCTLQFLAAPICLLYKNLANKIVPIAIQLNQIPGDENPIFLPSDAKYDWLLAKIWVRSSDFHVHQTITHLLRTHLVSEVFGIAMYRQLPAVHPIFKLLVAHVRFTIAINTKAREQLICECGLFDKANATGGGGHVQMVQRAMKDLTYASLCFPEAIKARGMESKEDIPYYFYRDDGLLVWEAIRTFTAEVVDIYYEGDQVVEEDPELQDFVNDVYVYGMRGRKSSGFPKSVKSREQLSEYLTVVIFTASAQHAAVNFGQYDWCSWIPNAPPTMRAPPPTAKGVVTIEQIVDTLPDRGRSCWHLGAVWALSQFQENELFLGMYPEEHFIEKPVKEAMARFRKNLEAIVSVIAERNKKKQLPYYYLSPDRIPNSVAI
Method: Lipoxygenases are a family of monomeric proteins that catalyze oxidation of polyunsaturated fatty acids (PUFA) (linoleic, linolenic and arachidonic acid) to produce hydroperoxides. Fractions’ anti-LOX activity was also measured as inhibition of linoleic acid’s peroxidation to hydroperoxylinoleic acid.
To evaluate the prospects of the newly synthesized spirooxindoles as promising drug candidates, we first studied their inhibitory potency against the Lipoxygenase-5 (LOX-5) enzyme.

C. kreusei ATCC 6258 = assay: MFC by the agar method; settings: for MFC/MIC ratio: C. Krusei, ≤ 4 fungicidal, >4 fungistatic; for MFC: Pichia kudriavzevii, ATCC6258
Method: (§2) To further determine the killing efficiency of the synthesized spiropyrrolidines against selected strains, the minimum bactericidal concentration (MBC) and the minimum fungicidal concentration (MFC) were assessed by the agar method [54].

[2] = system: Staphylocoocus aureus ATCC 25923; assay: MIC, in vitro micro diffusion method; assay type: cell-based; settings: Staphylococcus aureus, ATCC25923; S. aureus ATCC 25923
Excerpt: (§1) In this part, the spiropyrrolidines 4a–m were selected to be screening for their antimicrobial activities, using in vitro micro diffusion method, against multiple bacterial strains (Staphylocoocus aureus ATCC 25923, Escherichia coli ATCC 25922, Pseudomonas aeruginosa ATCC 27950, Micrococcus luteus NCIMB 8166), and two pathogenic reference yeasts namely Candida albicans ATCC 90028 and Candida kreusei ATCC 6258.

C. albicans ATCC 90028 = assay: MFC by the agar method; settings: for MFC/MIC ratio: C. Albicans, ≤ 4 fungicidal, >4 fungistatic; for MFC: Candida albicans, ATCC90028
Method: as §2

P. aeruginosa ATCC 27950 = assay: MBC by the agar method; settings: Pseudomonas aeruginosa, ATCC27950
Method: as §2

S. aureus ATCC 25923 = assay: MBC by the agar method; settings: for MBC: Staphylococcus aureus, ATCC25923
Method: as §2

E. coli ATCC 25922 = assay: MBC by the agar method
Method: as §2

M. luteus NCIMB 8166 = assay: MBC by the agar method; settings: for MBC: Micrococcus luteus, NCIMB8166; for MBC/MIC ratio: M. luteus, ≤ 4 bactericidal, >4 bacteriostatic
Method: as §2

[3] = system: Micrococcus luteus NCIMB 8166; assay: MIC, in vitro micro diffusion method; assay type: cell-based; settings: NCIMB8166, M. luteus NCIMB 8166
Excerpt: as §1

[4] = system: Escherichia coli ATCC 25922; assay: MIC, in vitro micro diffusion method; assay type: cell-based; settings: ATCC25922, E. coli ATCC 25922
[5] = system: Candida albicans ATCC 90028; assay: MIC, in vitro micro diffusion method; assay type: cell-based; settings: ATCC90028, C. albicans ATCC 90028
Excerpt: as §1

[6] = system: Candida kreusei ATCC 6258; assay: MIC, in vitro micro diffusion method; assay type: cell-based; settings: C. krusei ATCC 6258
Excerpt: as §1

[7] = system: acetic acid-induced writhing; assay: Acetic acid-induced writhing test (analgesic); settings: 100 mg/kg
Method: Any writhing was considered a positive response. The efficacy and potency of analgesic activity of the test compounds is inferred from the reduction in the frequency of writhings [53].
Analgesic activity in rats was determined by the protocol described by Tiss et al. [82].

[8] = system: λ-carrageenan-induced paw edema; assay: Carrageenan-induced paw edema test; assay type: in vivo; settings: rats
Excerpt: Diclofenac sodium was used as a reference drug.

[9] = Acute toxicity (liver and kidney indices); assay type: in vivo; settings: rats
[10] = set-up: method as in doi:10.1002/slct.201901228; settings: read-out: IC50 (anti-inflammatory efficacy); cited from earlier work
[11] = Escherichia coli, ATCC25922, E. coli ATCC 25922

| Compound | melting point [°C] | IC50 [1] [mM] | MFC/MIC ratio (C. kreusei ATCC 6258) | MFC (C. kreusei ATCC 6258) [µg/mL] | MIC [2] [µg/mL] | MFC/MIC ratio (C. albicans ATCC 90028) | MFC (C. albicans ATCC 90028) [µg/mL] | MBC (P. aeruginosa ATCC 27950) [µg/mL] | MBC (S. aureus ATCC 25923) [µg/mL] | MBC (E. coli ATCC 25922; E. coli ATCC 25922) [µg/mL] | MBC (E. coli ATCC 25922; [11]) [µg/mL] | MBC (M. luteus NCIMB 8166) [µg/mL] | MIC [3] [µg/mL] | other results |
| --- | --- | --- | --- | --- | --- | --- | --- | --- | --- | --- | --- | --- | --- | --- |
| Cc1ccc([C@H]2[C@H](c3ccccc3)N[C@@]3(C(=O)Nc4ccc(Br)cc43)[C@@]23NC(=O)NC3=O)cc1 (racemic) [4b] | 236 | 5.66 | ≤ 4 | 93.8 (≈ 181 µM) | 46.9 (≈ 90.6 µM) | ≤ 4 | 188 (≈ 362 µM) | 93.8 (≈ 181 µM) | 750 (≈ 1450 µM) | 375 (≈ 725 µM) | 188 to 374 (≈ 362 to 723 µM) | 750 (≈ 1450 µM) | – | MBC/MIC ratio (S. aureus ATCC 25923; S. aureus, ≤ 4 bactericidal, >4 bacteriostatic): 16 |
| COc1ccc([C@H]2[C@H](c3ccccc3)N[C@@]3(C(=O)Nc4ccc(Cl)cc43)[C@@]23NC(=O)NC3=O)cc1 (racemic) [4c] | 211 | 4.42 | – | > 1500 | – | – | 46.9 (≈ 95.9 µM) | 93.8 (≈ 192 µM) | 188 (≈ 383 µM) | – | 188 (≈ 383 µM) | 750 (≈ 1530 µM) | 93.8 (≈ 192 µM) | MIC [4]: 188 µg/mL (≈ 383 µM); MBC/MIC ratio (M. luteus NCIMB 8166): 8 |
| O=C1NC(=O)[C@]2(N1)[C@@H](c1ccc(Cl)cc1)[C@H](c1ccccc1)N[C@@]21C(=O)Nc2ccccc21 (racemic) [4e] | 235 | 3.86 | ≤ 4 | 46.9 (≈ 102 µM) | 46.9 (≈ 102 µM) | ≤ 4 | 23.4 (≈ 51.1 µM) | 188 (≈ 409 µM) | 93.8 (≈ 204 µM) | – | 750 (≈ 1630 µM) | > 1500 | – | MIC [5]: 23.4 µg/mL (≈ 51.1 µM); MIC [6]: 46.9 µg/mL (≈ 102 µM) |
| O=C1NC(=O)[C@]2(N1)[C@@H](c1ccc(Br)cc1)[C@H](c1ccccc1)N[C@@]21C(=O)N(Cc2ccccc2)c2ccccc21 (racemic) [4g] | 223 | 8.36 | ≤ 4 | 93.8 (≈ 158 µM) | 23.3 (≈ 39.3 µM) | ≤ 4 | 93.8 (≈ 158 µM) | 188 (≈ 316 µM) | 46.9 (≈ 79 µM) | 375 (≈ 632 µM) | 188 to 374 (≈ 316 to 630 µM) | > 1500 | 93.8 (≈ 158 µM) | MBC/MIC ratio (M. luteus NCIMB 8166): 8 |
| O=C1NC(=O)[C@]2(N1)[C@@H](c1ccc(Cl)cc1)[C@H](c1ccccc1)N[C@@]21C(=O)Nc2ccc(Br)cc21 (racemic) [4h] | 198 | 3.09 | – | > 1500 | – | – | > 1500 | 188 (≈ 349 µM) | 188 (≈ 349 µM) | 375 (≈ 697 µM) | 188 to 374 (≈ 349 to 695 µM) | 188 (≈ 349 µM) | 93.8 (≈ 174 µM) | MBC/MIC ratio (M. luteus NCIMB 8166): 8 |
| O=C1NC(=O)[C@]2(N1)[C@@H](c1ccccc1O)[C@H](c1ccccc1)N[C@@]21C(=O)Nc2ccccc21 (racemic) [4l] | – | 2.47 | ≤ 4 | 93.8 (≈ 213 µM) | 46.9 (≈ 106 µM) | ≤ 4 | 188 (≈ 426 µM) | 93.8 (≈ 213 µM) | 93.8 (≈ 213 µM) | – | 188 (≈ 426 µM) | 750 (≈ 1700 µM) | – | % Inhibition (writhing) [7]: 53%; Number of Writhing ([7]; mean ± SE): 29 ± 6; Increase in Paw Volume, 0 h ([8]; 10 mg/kg orally 1 h before carrageenan, 0 h): 0.57 ± 0.19; Increase in Paw Volume, 1 h ([8]; 10 mg/kg orally 1 h before carrageenan, 1 h): 0.93 ± 0.13; Increase in Paw Volume, 2 h ([8]; 10 mg/kg orally 1 h before carrageenan, 2 h): 1.26 ± 0.31; Increase in Paw Volume, 4 h ([8]; 10 mg/kg orally 1 h before carrageenan, 4 h): 1.73 ± 0.33; % Inhibition of Edema, 1 h ([8]; 10 mg/kg orally, 1 h): 29%; % Inhibition of Edema, 2 h ([8]; 10 mg/kg orally, 2 h): 18%; % Inhibition of Edema, 4 h ([8]; 10 mg/kg orally, 4 h): 32%; ALT ([9]; dose of 16.25 mg/kg): 22 ± 1.7 U/L; AST ([9]; dose of 16.25 mg/kg): 101 ± 11 U/L; Albumin ([9]; dose of 16.25 mg/kg): 8.5 ± 1.1 g/L; Creat ([9]; dose of 16.25 mg/kg): 3.41 ± 0.8 µmol/L; Urea ([9]; dose of 16.25 mg/kg): 2.97 ± 0.5 mmol/L; Acute toxicity (result in words) ([9]; up to a dose of 16.25 mg/kg): did not cause any toxicity |
| O=C1NC(=O)[C@]2(N1)[C@@H](c1ccccc1O)[C@H](c1ccccc1)N[C@@]21C(=O)Nc2ccc(Cl)cc21 (stereo in doubt) [4m] | 223 | 2.99 | ≤ 4 | 93.8 (≈ 197 µM) | – | ≤ 4 | 93.8 (≈ 197 µM) | 188 (≈ 395 µM) | 93.8 (≈ 197 µM) | 375 (≈ 790 µM) | 188 to 374 (≈ 395 to 788 µM) | 188 (≈ 395 µM) | 93.8 (≈ 197 µM) | MIC [4]: 188 µg/mL (≈ 395 µM) |
| C[C@@H]1[C@H](O)[C@@H](C)/C=C/C=C/C=C/C=C/C=C/C=C/C=C/[C@H](O[C@@H]2O[C@H](C)[C@@H](O)[C@H](N)[C@@H]2O)C[C@@H]2O[C@](O)(C[C@@H](O)C[C@@H](O)[C@H](O)CC[C@@H](O)C[C@@H](O)CC(=O)O[C@H]1C)C[C@H](O)[C@H]2C(=O)O [Amphotericin B, reference compound] | – | – | – | 62.5 (≈ 67.6 µM) | – | – | 500 (≈ 541 µM) | – | – | – | – | – | – | MIC [6]: 62.5 µg/mL (≈ 67.6 µM) |
| O=C1/C(=C/c2cccc(F)c2)CCC[C@@]12[C@H](c1cccc(F)c1)[C@@H]1CSCN1[C@]21C(=O)Nc2ccccc21 [IVc] | – | – | – | – | – | – | – | – | – | – | – | – | – | IC50 [10]: 2.4 ± 1.3 µM |
| CN(C)[C@@H]1C(O)=C(C(N)=O)C(=O)[C@@]2(O)C(O)=C3C(=O)c4c(O)cccc4[C@@](C)(O)[C@H]3C[C@@H]12 [Tetracycline, reference compound] | – | – | – | – | – | – | – | 128 (≈ 288 µM) | 8 (≈ 18 µM) | – | 512 (≈ 1150 µM) | 512 (≈ 1150 µM) | 500 (≈ 1130 µM) | – |
| CC(C)Cc1ccc(C(C)C(=O)O)cc1 (centres unmarked) [ibuprofen] | – | – | – | – | – | – | – | – | – | – | – | – | – | IC50 [10]: 11.2 ± 1.9 µM |

Reference: publication PMC10650415, “Synthesis of Tetracyclic Spirooxindolepyrrolidine-Engrafted Hydantoin Scaffolds: Crystallographic Analysis, Molecular Docking Studies and Evaluation of Their Antimicrobial, Anti-Inflammatory and Analgesic Activities” (Molecules, 2023)
